Earlier results, collected in patent US20240099974A1, “TREATMENT AGENT” (FUJIFILM Corporation, priority 2021, published 2024).

Settings: iv; Mould et al., 2002, Ait-Oudhia, Mager and Straubinger 2014

SMILES: CC[C@@]1(O)C(=O)OCc2c1cc1n(c2=O)Cc2cc3c(CN(C)C)c(O)ccc3nc2-1 [topotecan]
- clearance in a case where topotecan is intravenously administered: 18.6 L/h
